pIC50: −log10 of the molar value.

From patent US20110118309A1, “USE OF HDAC INHIBITORS FOR THE TREATMENT OF HODGKIN'S DISEASE” (priority 2008, published 2011) come the findings set out here.

Assay [1] relates to Hodgkin lymphoma cell lines, RPMI6666, HD-MY-Z, and L428. The assay is described as follows: Proliferation and viability of 3 Hodgkin lymphoma cell lines. The assay is classed as cell-based. Conditions: range over 3 HL cell lines; units printed in the value (picomolar, nanomolar). An excerpt:
(§1) Bcl2 may be a patient stratification marker

For the next assay, the system named is CTCL mouse model. The assay is described as follows: CTCL mouse model. It is filed as in vivo.
Description: as §1

The test system of assay [2] is E[…]-myc mouse lymphoma model. The assay is described as follows: E[…]-myc mouse lymphoma model. The assay is classed as in vivo.
Description: as §1

The subject of a further assay is L-428. The assay is described as follows: Single agent anti-tumor activity of LBH589 in Hodgkins Lymphoma cell lines in vitro (growth inhibition and cell kill). Conditions: L-428, Hodgkins Lymphoma. The assay is classed as cell-based.
Description: as §1
(§2) Single agent anti-tumor activity of LBH589 in Hodgkins Lymphoma cell lines in vitro is outlined in table I.

Another assay concerns RPMI 6666. The description is as above. It is filed as cell-based. To be noted: RPMI 6666, Hodgkins Lymphoma.
Description: as §1, §2

The test system of another assay is HD-MY-Z. Described as above. The assay is classed as cell-based.
Description: as §1, §2

Assay [3] concerns Cell lines of mantle cell and follicular lymphoma. Nature of the assay: Sensitivity of mantle cell and follicular lymphoma cell lines. It is filed as cell-based.
Description: as §1

In the next assay the test system is CTCL cell lines. Nature of the assay: Sensitivity of CTCL cell lines. The assay is classed as cell-based.
Description: as §1

Where [4] appears, read: Homo sapiens, read-out: IC50: Concentration of LBH589 required to inhibit growth of cell line by 50%.

As for `Cc1[nH]c2ccccc2c1CCNCc1ccc(/C=C/C(=O)NO)cc1` [LBH589, N-hydroxy-3-[4-[[[2-(2-methyl-1H-indol-3-yl)-ethyl]-amino]methyl]phenyl]-2E-2-propenamide], the pIC50 was 7.30 to 9.70 in assay [1], 7.98 with L-428 (setting [4]), 9.70 in the assay with RPMI 6666 (setting [4]) and 7.29 in the assay with HD-MY-Z (read-out: IC50: Concentration of LBH589 required to inhibit growth of cell line by 50%). Moreover, in the assay with CTCL mouse model, the tumor regression entry is “profound tumor regression”. In addition, in assay [2], the regression of lymphoma entry is given as “produces regression”. In addition, in assay [2], the survival entry was “extends survival”. The LD90: Concentration of LBH589 required to kill a cell line population by 90% in the assay on L-428 is 57.5 nM; in the assay on RPMI 6666 (in nM), 274.7; in the assay with HD-MY-Z (in nM) it was >10,000. Further, the “sensitivity to LBH589” value in assay [3] is recorded as “extreme sensitivity”; with CTCL cell lines, “extremely sensitive”.
